Reference: US20170165283A1, “USE OF BETA-NICOTINAMIDE MONONUCLEOTIDE IN PREPARATION OF HEALTH-CARE PRODUCTS FOR PREVENTING AND TREATING ARTERIOSCLEROSIS AND CARDIO-CEREBROVASCULAR DISEASES, AND HEALTH-CARE PRODUCT CONTAINING THE SAME” (BONTAC BIO-ENGINEERING (SHENZHEN) CO., LTD, priority 2015, published 2017)

Legend:
[1] = test system: guinea pigs fed on high-fat diet (arteriosclerosis, lesion of the aorta); assay: Aortic lesion area (Sudan IV staining) in guinea pigs fed on high-fat diet; type: in vivo; conditions: end of week 7, x±s
Method: 70 SPF healthy guinea pigs (female:male 1:1) having a body weight of 250-300 g, were assigned to 7 groups at random, each group having 10 animals. The groups include (1) a normal control group, fed on basal diet, and allowed to free access to water during experiment;
(2) a high fat control group, fed on high-fat diet, and allowed to free access to water during experiment;
(3) a high fat prevention group, fed on high-fat diet, dosed with 50 mg NMN/kg body weight every day by gavage, and allowed to free access to water during experiment;
(4) a low-dose NMN group, fed on high-fat diet, dosed with 0.5 mg NMN/kg body weight every day by gavage from week 6, and allowed to free access to water during experiment;
(5) a medium-dose NMN group, fed on high-fat diet, dosed with 50 mg NMN/kg body weight every day by gavage from week 6, and allowed to free access to water during experiment;
(6) a high-dose NMN group, fed on high-fat diet, dosed with 100 mg NMN/kg body weight every day by gavage from week 6, and allowed to free access to water during experiment; and (7) a NMN+NR group, fed on high-fat diet, dosed with 50 mg NMN/kg body weight and 5 mg NR/kg body weight every day by gavage from week 6, and allowed to free access to water during experiment.
The formulation of the high-fat diet includes 75% basal diet, 5% cholesterol, and 20% lard oil.
At the end of week 7, all the experimental animals was fasted (allowed to access to water) for 12 hrs and then sacrificed. The aorta was isolated, dissected longitudinally along the midline of the anterior wall, and stained with Sudan IV. […] The lesion area pathologically measured and the total endangium area were quantified, and the degree of arteriosclerosis was expressed by percentages of the lesion area relative to the total endangium area of the aorta.
Statistical analysis: All the experimental data is analyzed by SPSS13.0 Statistics software. The measurement data is expressed as x±s, and t test is applied to check the statistical significance. Where P <0.05, there is statistical significance.

[2] = test system: patients diagnosed as having cardio-cerebrovascular diseases resulting from arteriosclerosis; assay: Clinical trial in patients with cardio-cerebrovascular diseases resulting from arteriosclerosis; type: in vivo, human; conditions: Group A: oral NMN 10 mg/kg body weight every day; for Total effective rate: excluding the withdrawing patients
Method: 200 patients (male:female 1:1, aged 35-76 years and 55 years on average, and having a course of disease of the shortest 2 years, the longest 7 years, and 4.8 years on average) diagnosed as having cardio-cerebrovascular diseases resulting from arteriosclerosis were selected at random as subjects for clinical observation. The patients were assigned to a group A and a group B at random, each group having 100 patients.
Group A: The patients were orally administered with NMN at a dosage of 10 mg/kg body weight before or after meals every day, and the diet was controlled as desired.
Group B: The patients were orally administered with NMN at a dosage of 10 mg/kg body weight and with NR at a dosage of 2 mg/kg body weight before or after meals every day, and the diet was controlled as desired.
(1) Obvious effectiveness: The health is built up, the body is powerful, the blood lipid and blood pressure drop to normal levels, the palpitation, chest pain, chest tightness, headache, dizziness, decreased vision, decreased memory, insomnia and dreamful sleep, and other clinical symptoms are obvious alleviated.
(2) Effectiveness: The health is built up, the blood lipid and blood pressure drop slightly, the palpitation, chest pain, chest tightness, headache, dizziness, decreased vision, decreased memory, insomnia and dreamful sleep, and other clinical symptoms are alleviated to some extent.
(3) Ineffectiveness: There is no obvious improvement in the clinical symptoms.

Compound: NC(=O)c1ccc[n+]([C@@H]2O[C@H](COP(=O)([O-])O)[C@@H](O)[C@H]2O)c1 [NMN, β-nicotinamide mononucleotide]
- Rate of lesion area of aorta (%) ([1]; high fat prevention group: high-fat diet, 50 mg NMN/kg body weight every day by gavage, n=10): 4 ± 1%
- Rate of lesion area of aorta (%) ([1]; high-dose group: high-fat diet, 100 mg NMN/kg body weight every day by gavage from week 6): 12 ± 3%
- Rate of lesion area of aorta (%) ([1]; low-dose group: high-fat diet, 0.5 mg NMN/kg body weight every day by gavage from week 6): 59 ± 4%
- Rate of lesion area of aorta (%) ([1]; medium-dose group: high-fat diet, 50 mg NMN/kg body weight every day by gavage from week 6): 23 ± 2%
- Time after administration at which patients with mild disease are cured [2]: 7 days
- Patients showing obvious effectiveness ([2]; after 1 month): 67 out of 100 patients
- Patients showing effectiveness ([2]; after 1 month, 100 patients): 28 patients
- Patients showing ineffectiveness ([2]; after 1 month, 100 patients): 4 patients
- Total effective rate ([2]; after 1 month): 96%
- Total effective rate ([2]; after 1 month, listed as β-nicotinamide mononucleotide): up to 96%
